Here are results for two sequences from article PMC10063231, “Human thymopoiesis produces polyspecific CD8^+ α/β T cells responding to multiple viral antigens” (eLife, 2023).

This test relates to TCR identified as responding to the VMNILLQYV peptide (GAD 114-122 TCR). As to the kind of experiment: Response of a cloned GAD 114-122-reactive TCR in the reporter cell line to cognate and unrelated peptides. The settings on record: cognate peptide versus structurally unrelated peptide, Figure 5D. The test is classed as cell-based, human.

Consider “SLYNPAIVYA [peptide from human chondroitin sulfate N-acetylgalactosaminyltransferase 2]”, for which the “Response of GAD 114-122 TCR in reporter cell line” value is reported as “responded even better”.
To “VMNILLQYV [peptide from the Glutamic Acid Decarboxylase protein]” belongs “responding”.
